# Measured values reported in patent US20100119595A1, “Monounsaturated fatty acids and perhydrocyclopentanophenanthrene nucleus combination molecules, and their precursors, and the use of all of these as weight-loss agents” (priority 2001, published 2010).
# Assay: Human study of 2 hydroxyestrone oleate (Example 11)
# Format: in vivo
# Conditions: humans, oral capsule, 0.75 or 0.375 micromoles/kg
# Procedure: In this random, double-blind, placebo controlled study, subjects are selected to one of three groups and take a capsule orally every morning containing one of the following: a) sunflower oil (placebo), b) 2 hydroxyestrone oleate dissolved in sunflower oil at a dose of 0.75 micromoles/kg, or c) 2 hydroxyestrone oleate dissolved in sunflower oil at a dose of 0.375 micromoles/kg. […]
# Different tests are performed at least five different times during each study, namely at the screening of potential participants, at the beginning of the study, weekly during the trials, at the end of the first 4 week period and at the end of the second 4 week treatment period. • 1) SCREENING: Subjects are screened to exclude hypothyroidism, pregnancy, and heart disease. […] Subjects selected to participate in the studies have the following initial measurements: WEIGHT, WAIST to HIP RATIO, HEIGHT, BMI (calculated), BODY FAT % & TOTAL BODY FAT (via bioelectrical impedance method). […]
# Ad libitum diets are followed, and food intake and appetite are assessed daily by the patient with an appropriate questionnaire and booklet. […]
smiles,measurement,value
"CCCCCCCC/C=C\CCCCCCCC(=O)Oc1cc2c(cc1O)[C@H]1CC[C@]3(C)C(=O)CC[C@H]3[C@@H]1CC2 [2HOE, 2 hydroxyestrone oleate]",appetite,reduces appetite
same,"weight loss, loss of body fat, and/or decrease of body fat%",produces weight loss
